IC50 data for eight compounds are collected here from article PMC8871312, “Effects of Microbial Transformation on the Biological Activities of Prenylated Chalcones from Angelica keiskei” (Foods, 2022).

Assay [1] addresses T1, Tyrosinase from mushroom.
T1 construct: gene PPO3
The assay can be described thus: dopachrome absorbance at […] nm. In kind it is biochemical. The note with it: 2 mM L-tyrosine, 0.1 M phosphate pH 6.5, 37 °C, 30 min, 150 U/mL enzyme; read-out: IC50 ± SD (μM) / Tyrosinase.

For assay [2], the target named is T1, Tyrosinase from mushroom. The assay can be described thus: dopachrome absorbance at […] nm. The format is biochemical. The note with it: 2 mM L-tyrosine, 0.1 M phosphate pH 6.5, 37 °C, 30 min, 150 U/mL enzyme; read-out: IC50 ± SD (μM) / Tyrosinase. This is another data set of the same source.

Like-named read-outs stand apart in the source and are kept apart here.

Turning to `COc1ccc(C(=O)/C=C/c2ccc(O)cc2)c(O)c1CC=C(C)C` [compound 2, 4-hydroxyderricin], the IC50 at Tyrosinase from mushroom [1] is above 100 µM. On to `CCOC(C)(C)CCc1c(O[C@@H]2O[C@H](CO)[C@@H](O)[C@H](O)[C@H]2O)ccc(C(=O)/C=C/c2ccc(O)cc2)c1O` [compound 7, 3′-(3-O-Ethyl-3-methylbutyl)-4′-O-β-D-glucopyranosyl-4,2′-dihydroxychalcone], for which the IC50 on Tyrosinase from mushroom [2] came to 33.3 ± 1.16 µM. As to `CC(C)=CCC/C(C)=C/Cc1c(O[C@@H]2O[C@H](CO)[C@@H](O)[C@H](O)[C@H]2O)ccc(C(=O)/C=C/c2ccc(O)cc2)c1O` [compound 10, 4′-O-β-D-Glucopyranosyl xanthoangelol], the IC50 at Tyrosinase from mushroom [2] was 71.7 ± 9.22 µM. Regarding `CC(C)=CCC/C(C)=C/Cc1c(O)ccc(C(=O)/C=C/c2ccc(O)cc2)c1O` [compound 3, xanthoangelol], the IC50 at Tyrosinase from mushroom [2] was above 100 µM. Same read-out and setting: in the case of `CC(C)=CCc1c(O[C@@H]2O[C@H](CO)[C@@H](O)[C@H](O)[C@H]2O)ccc(C(=O)/C=C/c2ccc(O)cc2)c1O` [compound 6, 3′-(3-methyl-2-butenyl)-4′-O-β-D-glucopyranosyl-4,2′-dihydroxychalcone] it was 43.1 ± 6.74 µM. In the case of `CC(C)=CCc1c(O)ccc(C(=O)/C=C/c2ccc(O)cc2)c1O` [compound 1, isobavachalcone], on Tyrosinase from mushroom [2], the IC50 was above 100 µM. The same measure, in the same setting: then `COC(C)(C)CCc1c(O[C@@H]2O[C@H](CO)[C@@H](O)[C@H](O)[C@H]2O)ccc(C(=O)/C=C/c2ccc(O)cc2)c1O` [compound 5, 3′-(3-O-Methyl-3-methylbutyl)-4′-O-β-D-glucopyranosyl-4,2′-dihydroxychalcone], with 28.7 ± 1.24 µM; and `CC(C)(O)CCc1c(O[C@@H]2O[C@H](CO)[C@@H](O)[C@H](O)[C@H]2O)ccc(C(=O)/C=C/c2ccc(O)cc2)c1O` [compound 4, 3′-(3-Hydroxy-3-methylbutyl)-4′-O-β-D-glucopyranosyl-4,2′-dihydroxychalcone], with 78.5 ± 3.13 µM.
